# Data taken from patent publication US5017618A, “Labile derivatives of ketone analogs of 3-substituted-1-alkylamino-2-propanols and their use as beta-adrenergic blockers” (priority 1989, dated 1991).
# Counter-ions that a name gives are not always drawn.
# How the values were obtained:
# [1] = system: Intraocular Pressure (IOP) of Rabbits; assay: Effect on the Intraocular Pressure (IOP) of Rabbits; type: in vivo, rabbit (male New Zealand albino); conditions: for ocular hypotensive activity (in words): topical, dose levels used
# Description: The animals were kept in individual cages with free access to food and water. Intraocular pressure was measured using a Digilab model 30R pneumatonometer. The pneumatonometer readings were checked at least twice a day using the Digilab calibration verifier. All measurements were obtained from unrestrained, unanesthetized rabbits. One drop of 0.5% propacaine (Ophthetic-Allergen Pharmaceuticals, Inc.) diluted 1:2 with saline was instilled in each eye immediately prior to IOP measurement. Drugs were administered as 1 or 2.5% solution in buffer pH 7.4 or in saline in both eyes of a group of at least four rabbits. Another group of at least three rabbits served as control and was administered the carrier only. […] Values are given as means ± standard error (S.E.) of the mean. The significance of the change was determined using the student's t-test.
# [2] = propranolol enantiomers; cited from earlier work
# [3] = system: resting heart rate of rats; assay: Effect on resting heart rate in rats; type: in vivo, rat (male Sprague-Dawley); conditions: 6 mg/kg i.v. (Example 6)
# Description: (§1) Groups of seven male Sprague-Dawley rats weighing 150-250 g were used. Each animal was anesthetized with sodium pentobarbital (50 mg/kg) and the jugular vein was cannulated with PE50 tubing. This cannula was subcutaneously threaded around the neck and exteriorized dorsally. The cannula was filled with heparin solution ([…]) and sealed with a solid 22-gauge stylet. Animals were housed in individual stainless steel cages and at least 24 hours were allowed for recovery from the surgery. Food and water were provided ad libitum. On the day of the experiment, the heart rate of each rat was monitored with a plethsmograph and the data recorded on a Physioscribe II recorder. One hour was allowed as an equilibration period before any drugs were administered. Drugs were dissolved in normal saline as 0.3% solution and were administered intravenously at a dose of 6 mg/kg. The resting heart rate was then recorded after 1, 3, 5, 10 and 15 minutes following i.v. injection. […] A control group of seven animals was intravenously administered saline solution and was treated exactly in the same manner as the drug-treated groups. The significance of the difference between the effect of saline solution and the drugs under investigation on the resting heart rate and on isoprenaline tachycardia was analyzed using the student's "t" test. Values are given as mean ±S.E. of the mean. […] (.) carteolol HCl, 1c; .circle. propranolone ketoxime HCl, 6a; (.gradient.) timolone ketoxime oxalate, 6b; (Δ) N-isopropyl timolone ketoxime HCl, 6d; carteolone oxime HCl, 6c; and (---) saline solution. […] Drugs were administered to groups of 5 rats using a stomach tube and the heart rate was recorded for 1 hour. […] A control group of 5 rats was treated exactly in the same manner after the oral administration of the appropriate volume of saline solution.
# [4] = system: isoprenaline-induced tachycardia; assay: Effect on isoprenaline-induced tachycardia in rats (β-adrenergic antagonist activity); type: in vivo, rat (male Sprague-Dawley); conditions: for β-adrenergic antagonist activity against isoprenaline-tachycardia: rats, 6 mg/kg i.v., isoprenaline 50 μg/kg s.c., FIG. 1; for β-antagonist activity: dose levels used
# Description: as §1
# [5] = Hygroscopicity; type: physicochemical; conditions: crystals
# Description: In a 50 mL round-bottomed flask was placed a solution of oxalic acid (0.20 g, 2.22 mmole) in ether (10 mL). To this solution was added a solution of 5b (0.43 g, 1.3 mmole) in ether. The mixture was stirred at room temperature for 1 hour. The white non-hygroscopic crystals were filtered and dried in vacuo. Yield 0.53 g (97%), m.p. 165°-166° (dec.). NMR (CDCl3) δ 5.3 (s, 2H), 3.9-3.7 (m, 4H), 3.6-3.4 (m, 6H), 1.1 (s, 9H). Anal. (C18 H25 O7 N5), C,H,N.
# [6] = system: rabbit cornea (intraocular enzymes); type: in vivo; conditions: topical, 2% (w/v) aqueous solution
# Description: The tissue was homogenized in an alkaline buffer (pH 10.0) to give 10% (w/v) homogenate, and extracted twice with equal volumes of methylene chloride/diethyl ether mixture (1:4, v/v) by shaking for 15 minutes. The organic layer was separated, then re-extractedwith an equal volume of aqueous 0.1M hydrochloric acid solution. The aqueous phase was made alkaline (pH 10.0) and extracted with methylene chloride/diethyl ether, the organic layer was transferred to a deactivated glass vial, and the solvent was evaporated at reduced pressure under nitrogen stream. The residue was dissolved in 0.01M hydrochloric acid solution and analyzed by high-performance liquid chromatography (HPLC). A Supelcosil LC-8-DB analytical column (7.5 cm×4.6 mm i.d., 3 μm particle size) and mobile phase (1.5 mL/min flow rate) consisting of 30% acetonitrile in an aqueous buffer solution of 0.02M monobasic potassium phosphate (adjusted to pH 3.0 with phosphoric acid) and 0.01 (v/v) triethylamine. UV detection at 280 nm was applied. […] The same experiment was carried out by administering 1-(isopropylamino)-3-(2-allylphenoxy)-2-propanone oxime hydrochloride salt in 2% (w/v) aqueous solution. […]
# [7] = system: ocular tissues of rabbits; assay: In vivo distribution-metabolism in ocular tissues of rabbits; conditions: rabbit, in vivo
# Description: Adult male New Zealand albino rabbits weighing 2.5-3.5 kg were used. Standard doses of 100 μl of 1% solution of the drugs in saline solution were administered topically to both eyes of each rabbit. After appropriate time intervals (30, 60 and 120 minutes), the animals were sacrificed. Aqueous humor was obtained by making a single puncture at the limbus using a 25 g×5/8" needle attached to 1 cm^3 syringe. Then the cornea and the iris-ciliary body were isolated. The tissues were pooled and homogenized using a Tekmar SDT tissuemizer in ice cold perchloric acid (0.05M) which contained 0.05% sodium metabisulfite as antioxidant. Samples were then rehomogenized in CH3 OH to prepare 10% homogenates, transferred to micro-filters and centrifuged for 20 minutes at 10000 r/minute to precipitate proteins. Aqueous humor was analyzed as such without any further dilution. Aliquots of 5-20 μl of the 10% tissue homogenate samples were analyzed by HPLC.
# [8] = Table 3, 1% solution, time zero
smiles,measurement,setting,value
"CC(C)NCC(O)COc1cccc2ccccc12 (centres unmarked) [Propranolol HCl 1a, reference compound]",% change after treatment (IOP),"[1]; 1% solution, 30 min.",-9.10%
same,"IOP, treated","[1]; 1% solution, 30 min.",28.0 ± 0.56 mm/Hg
same,% change after treatment (IOP),"[1]; 1% solution, 60 min.",-10.39%
same,"IOP, treated","[1]; 1% solution, 60 min.",27.6 ± 0.62 mm/Hg
same,% change after treatment (IOP),"[1]; 1% solution, 2 hrs.",-5.52%
same,"IOP, treated","[1]; 1% solution, 2 hrs.",29.1 ± 0.38 mm/Hg
same,% change after treatment (IOP),"[1]; 1% solution, 3 hrs.",-11.04%
same,"IOP, treated","[1]; 1% solution, 3 hrs.",27.4 ± 0.54 mm/Hg
same,% change after treatment (IOP),"[1]; 1% solution, 4 hrs.",-8.44%
same,"IOP, treated","[1]; 1% solution, 4 hrs.",28.2 ± 0.48 mm/Hg
same,% change after treatment (IOP),"[1]; 1% solution, 6 hrs.",-5.84%
same,"IOP, treated","[1]; 1% solution, 6 hrs.",29.0 ± 0.45 mm/Hg
same,% change after treatment (IOP),"[1]; 1% solution, 8 hrs.",-1.95%
same,"IOP, treated","[1]; 1% solution, 8 hrs.",30.2 ± 0.43 mm/Hg
same,% change after treatment (IOP),"[1]; 1% solution, time zero",0.00%
same,"IOP, treated","[1]; 1% solution, time zero",30.8 ± 0.40 mm/Hg
same,% change after treatment (IOP),"[1]; 2.5% solution, 30 min.",+8.66%
same,"IOP, treated","[1]; 2.5% solution, 30 min.",27.6 ± 0.56 mm/Hg
same,% change after treatment (IOP),"[1]; 2.5% solution, 60 min.",+9.84%
same,"IOP, treated","[1]; 2.5% solution, 60 min.",27.9 ± 0.60 mm/Hg
same,% change after treatment (IOP),"[1]; 2.5% solution, 2 hrs.",+1.18%
same,"IOP, treated","[1]; 2.5% solution, 2 hrs.",25.7 ± 0.55 mm/Hg
same,% change after treatment (IOP),"[1]; 2.5% solution, 3 hrs.",+1.18%
same,"IOP, treated","[1]; 2.5% solution, 3 hrs.",25.7 ± 0.39 mm/Hg
same,% change after treatment (IOP),"[1]; 2.5% solution, 4 hrs.",+0.79%
same,"IOP, treated","[1]; 2.5% solution, 4 hrs.",25.6 ± 0.46 mm/Hg
same,% change after treatment (IOP),"[1]; 2.5% solution, 6 hrs.",0.00%
same,"IOP, treated","[1]; 2.5% solution, 6 hrs.",25.4 ± 0.54 mm/Hg
same,% change after treatment (IOP),"[1]; 2.5% solution, 8 hrs.",-0.79%
same,"IOP, treated","[1]; 2.5% solution, 8 hrs.",25.2 ± 0.68 mm/Hg
same,% change after treatment (IOP),"[1]; 2.5% solution, time zero",0.00%
same,"IOP, treated","[1]; 2.5% solution, time zero",25.4 ± 0.56 mm/Hg
CC(C)NC[C@H](O)COc1cccc2ccccc12 [S-(-)-isomer],potency relative to R-(+)-enantiomer,[2],about 100 times
"CC(C)(C)NCC(O)COc1cccc2c1CCC(=O)N2 (centres unmarked) [Compound 1c, reference compound]",activity on resting heart rate (negative chronotropic action),[3],lowest activity on the heart rate of rats
"CC(C)(C)NCC(COc1nsnc1N1CCOCC1)=NO.O=C(O)C(=O)O [Timolone oxime oxalate 6b, 1-(tert-Butylamino)-3-[(4-morpholino-1,2,5-thiadiazol-3-yl)oxy]-2-propanoneoxime oxalate]",activity on resting heart rate (negative chronotropic action),[3],highest activity
same,β-adrenergic antagonist activity against isoprenaline-tachycardia,[4],most effective
same,% change after treatment (IOP),"[1]; Table 3, 1% solution, 30 min.",-2.43%
same,"IOP, drug-treated","[1]; Table 3, 1% solution, 30 min.",27.75 ± 0.68 mm/Hg
same,% change after treatment (IOP),"[1]; Table 3, 1% solution, 1 hr.",-14.56%
same,"IOP, drug-treated","[1]; Table 3, 1% solution, 1 hr.",24.30 ± 0.63 mm/Hg
same,% change after treatment (IOP),"[1]; Table 3, 1% solution, 2 hr.",-15.61%
same,"IOP, drug-treated","[1]; Table 3, 1% solution, 2 hr.",24.00 ± 0.44 mm/Hg
same,% change after treatment (IOP),"[1]; Table 3, 1% solution, 3 hr.",-11.64%
same,"IOP, drug-treated","[1]; Table 3, 1% solution, 3 hr.",25.13 ± 0.96 mm/Hg
same,"IOP, drug-treated","[1]; Table 3, 1% solution, 4 hr.",26.93 ± 0.48 mm/Hg
same,% change after treatment (IOP),"[1]; Table 3, 1% solution, 5 hr.",-5.49%
same,"IOP, drug-treated","[1]; Table 3, 1% solution, 5 hr.",26.88 ± 0.52 mm/Hg
same,% change after treatment (IOP),"[1]; Table 3, 1% solution, 6 hr.",+1.20%
same,"IOP, drug-treated","[1]; Table 3, 1% solution, 6 hr.",28.78 ± 0.91 mm/Hg
same,% change after treatment (IOP),"[1]; Table 3, 1% solution, 8 hr.",-7.42%
same,"IOP, drug-treated","[1]; Table 3, 1% solution, 8 hr.",26.33 ± 0.40 mm/Hg
same,% change after treatment (IOP),[1]; [8],0.00%
same,"IOP, drug-treated",[1]; [8],28.44 ± 0.63 mm/Hg
same,ocular hypotensive activity compared with parent β-blocker,"[1]; same dose levels, rabbits",faster in its onset and shorter in its duration than timolol 1b itself
same,ocular hypotensive activity (in words),[1]; rabbits,significant ocular hypotensive activity
same,hygroscopicity,[5],non-hygroscopic
C=CCc1ccccc1OCC(CNC(C)C)=NO.Cl [1-(isopropylamino)-3-(2-allylphenoxy)-2-propanone oxime hydrochloride],metabolites identified in cornea,[6],"showed the presence of the two oxime isomers, the corresponding ketone 1-(isopropylamino)-3-(2-allylphenoxy)-2-propanone, and the β-adrenergic blocker 1-(isopropylamino)-3-(2-allylphenoxy)-2-propanol(alprenolol)"
"CC(C)NCC(COc1nsnc1N1CCOCC1)=NO.Cl [Compound 6d, 1-(Isopropylamino)-3-[(4-morpholino-1,2,5-thiadiazol-3-yl)oxy]-2-propanone oxime Hydrochloride]",activity on resting heart rate (negative chronotropic action),[3],less active
same,β-antagonist activity,[4],some β-antagonist activity
same,β-adrenergic antagonist activity against isoprenaline-tachycardia,[4],least active
same,activity,[1]; selected dosage level,inactive at the selected dosage level
same,ocular hypotensive activity (in words),[1]; rabbits,low activity at the dose levels used
CC(C)NC[C@@H](O)COc1cccc2ccccc12 [R-(+)-enantiomer],metabolism relative to S-form,[2],metabolized faster than the S-form
"CC(C)(C)NCC(COc1cccc2c1CCC(=O)N2)=NO [Compound 6c, 5-[3-(tert-Butylaminno)-2-(hydroxyimino)propoxy]-3,4-dihydrocarbostyril Hydrochloride]",activity on resting heart rate (negative chronotropic action),[3],less active
same,β-antagonist activity,[4],some β-antagonist activity
same,β-adrenergic antagonist activity against isoprenaline-tachycardia,[4],least active
same,ocular hypotensive activity (in words),[1]; rabbits,low activity at the dose levels used
"CC(C)(C)NCC(O)COc1nsnc1N1CCOCC1 (centres unmarked) [Timolol maleate 1b, reference compound]",% change after treatment (IOP),"[1]; Table 3, 1% solution, 30 min.",-10.93%
same,"IOP, drug-treated","[1]; Table 3, 1% solution, 30 min.",26.00 ± 1.23 mm/Hg
same,% change after treatment (IOP),"[1]; Table 3, 1% solution, 1 hr.",6.65%
same,"IOP, drug-treated","[1]; Table 3, 1% solution, 1 hr.",27.25 ± 1.12 mm/Hg
same,% change after treatment (IOP),"[1]; Table 3, 1% solution, 2 hr.",6.78%
same,"IOP, drug-treated","[1]; Table 3, 1% solution, 2 hr.",27.21 ± 0.58 mm/Hg
same,% change after treatment (IOP),"[1]; Table 3, 1% solution, 3 hr.",14.35%
same,"IOP, drug-treated","[1]; Table 3, 1% solution, 3 hr.",25.00 ± 0.87 mm/Hg
same,% change after treatment (IOP),"[1]; Table 3, 1% solution, 4 hr.",14.77%
same,"IOP, drug-treated","[1]; Table 3, 1% solution, 4 hr.",24.88 ± 1.00 mm/Hg
same,% change after treatment (IOP),"[1]; Table 3, 1% solution, 5 hr.",16.92%
same,"IOP, drug-treated","[1]; Table 3, 1% solution, 5 hr.",24.25 ± 1.18 mm/Hg
same,% change after treatment (IOP),"[1]; Table 3, 1% solution, 6 hr.",12.37%
same,"IOP, drug-treated","[1]; Table 3, 1% solution, 6 hr.",25.58 ± 0.85 mm/Hg
same,% change after treatment (IOP),"[1]; Table 3, 1% solution, 8 hr.",9.80%
same,"IOP, drug-treated","[1]; Table 3, 1% solution, 8 hr.",26.33 ± 0.40 mm/Hg
same,% change after treatment (IOP),[1]; [8],0.00%
same,"IOP, drug-treated",[1]; [8],29.19 ± 0.78 mm/Hg
CC(C)(C)NCC(O)COc1cccc2c1CCC(=O)N2 (centres unmarked) [carteolol],detection of parent β-adrenergic antagonist in eye compartments,[7],could not be found in any of the eye compartments
